In experiment [1] the target is T1, WT BTK protein (Homo sapiens, UniProt Q06187).
T1 construct: measured for intracellular BTK protein levels by Western blotting; endogenous in cells; host or cells: TMD-8 or RAMOS cells
Nature of the experiment: BTK protein degradation assay (Western blotting), WT BTK. The experiment is classed as cell-based. As to conditions: concentration range accounting for 50% degradation of WT BTK protein, TMD-8 or RAMOS cells, 24 hours. In a few lines: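 TMD-8 cells (1×10^6 cells/mL) treated 24 h with compound serial dilutions, then lysed in RIPA. Equal protein loads analysed by Western blot for BTK with GAPDH/β-actin as loading controls; activity binned by concentration giving 50% WT BTK degradation.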

Experiment [2] addresses T2, C481S BTK protein (Homo sapiens, UniProt Q06187, C481S).
T2 construct: expressed in transfected cells; host or cells: 293T BTK MUT (C481S) cells
Description: BTK protein degradation assay (Western blotting), C481S BTK. In kind it is cell-based. The following applies: concentration range accounting for 50% degradation of C481S BTK protein, 293T BTK MUT (C481S) cells. The protocol: TMD-8, RAMOS, or 293T BTK MUT (C481S) cells were treated with the synthesized compounds and measured for intracellular BTK protein levels by Western blotting. The protocol of the experiment using TMD-8 cells is as follows.
The 12-well plates were treated as follows. A 10 mM stock was 1/10 diluted in series with DMSO ([…]) to form final concentrations of 10, 1, 0.1, 0.01, 0.001, and 0.0001 mM. The compounds with such concentrations were applied to cells, followed by harvesting the cells 24 hours later. For a negative control, a 1/10 dilution of DMSO in the medium (3 mL DMSO+27 mL medium) was used.
The 1-mL cell culture in each well was passed many times through a pipette and then transferred into a 1.5-mL microtube before centrifugation (500 g, 5 min, 4° C.). The supernatant was discarded and the cell pellet was washed with PBS. After centrifugation (500 g, 5 min, 4° C.) again, the supernatant was discarded and the cell pellet was taken.
A lysis buffer was prepared as follows. RIPA buffer (Biosesang, RC2038-050-00)+0.5 mM PMSF (SIGMA, P7626)+1×Protease/Phosphatase Inhibitor (Cell signaling, 5872S) was added in an amount […] per well and left for 30 minutes on ice (vortexing at 0 and 30 minutes) before sonication (5 cycles of pulse for 10 seconds and rest for 30 seconds, 70% amplification). The supernatant obtained by centrifugation (15000 g, 15 min, 4° C.) was transferred into a new microtube. Cells in each well of 96-well plates were 1/2 diluted with the RIPA buffer and incubated at 37° C. for 30 minutes with […] of a 50:1 mixture of BCA reagents A and B in BCA Protein Assay Kit (iNtRON, 21071). After being cooled for 10 minutes, the 96-well plates were measured for absorbance at 562 nm on the BioTek, SYNERGY H1 microplate reader. Samples were prepared by protein quantification based on the absorbance measurements and then boiled at 70° C. for 10 minutes. The sample buffer used in the case was prepared by mixing a NuPAGE or a Bolt 4× sample buffer (Invitrogen) and its 10× sample reducing agent depending on the gel to be used, and protein dilution was made in a RIPI buffer.
The samples were loaded in the same amount into a NuPAGE or Bolt Bis-tris 4-12% gradient gel and allowed to run therein (200 V, 35 minutes). The separated proteins were transferred onto a […] NC membrane, using Trans-blot Turbo (BIO-RAD) (1.3 A constant, 25V limit, 15 minutes). The membrane was blocked at room temperature for 1 hour with skim milk or Intercept Blocking Buffer (LI-COR, 927-60001):0.1% TBST=1:1. The membrane was incubated with Anti BTK Rabbit (1:1,000 in 5% skim milk/0.2% TBST, size: 77 kDa, Cell signaling Technology) at 4° C. overnight O/N or at room temperature for 2 hours and with Anti GAPDH Rabbit (1:10,000 in 5% BSA/0.2% TBST, size: 36 kDa, GENETEX) and Anti β-actin mouse (1:10,000 in 5% BSA/0.2% TBST, RT, size: 43 kDa, GENETEX) at room temperature for 1 or 3 hours. Then, the membrane was washed three times with 0.5% TBST for 5 minutes each time before incubation with the second antibody Anti-Rabbit IgG (1:5,000 in 5% Skim milk/TBST, CST), IRDye® 800CW Goat anti-Rabbit IgG Secondary Antibody (1:10,000 in 5% skim/TBST, RT 45 min), or IRDye® 680RD Goat anti-Mouse IgG Secondary Antibody (1:10,000 in 5% skim/TBST, RT 45 min) for 45 minutes at room temperature in a rocker. The membrane was washed five times with 0.5% TBST for 5 minutes in each time, followed by detection with LI-COR, Odyssey. In this regard, the detection proceeded, as it was, for house-keeping genes while using SuperSignal West Pico PLUS Chemiluminescent Substrate or SuperSignal West femto Maximum Sensitivity Substrate for BTK detection.
According to the concentration ranges of compounds accounting for 50% degradation of WT BTK protein and C481S BTK protein, the activities are expressed as +++(0.0001-0.01 μM), ++(0.01-1 μM), +(1-10 μM), −(>10 μM), and NT (not tested). […]

SMILES strings stand for the structures. Where only a bound is given, the exact number is not on record here.

T1 sequence (Q06187 whole entry): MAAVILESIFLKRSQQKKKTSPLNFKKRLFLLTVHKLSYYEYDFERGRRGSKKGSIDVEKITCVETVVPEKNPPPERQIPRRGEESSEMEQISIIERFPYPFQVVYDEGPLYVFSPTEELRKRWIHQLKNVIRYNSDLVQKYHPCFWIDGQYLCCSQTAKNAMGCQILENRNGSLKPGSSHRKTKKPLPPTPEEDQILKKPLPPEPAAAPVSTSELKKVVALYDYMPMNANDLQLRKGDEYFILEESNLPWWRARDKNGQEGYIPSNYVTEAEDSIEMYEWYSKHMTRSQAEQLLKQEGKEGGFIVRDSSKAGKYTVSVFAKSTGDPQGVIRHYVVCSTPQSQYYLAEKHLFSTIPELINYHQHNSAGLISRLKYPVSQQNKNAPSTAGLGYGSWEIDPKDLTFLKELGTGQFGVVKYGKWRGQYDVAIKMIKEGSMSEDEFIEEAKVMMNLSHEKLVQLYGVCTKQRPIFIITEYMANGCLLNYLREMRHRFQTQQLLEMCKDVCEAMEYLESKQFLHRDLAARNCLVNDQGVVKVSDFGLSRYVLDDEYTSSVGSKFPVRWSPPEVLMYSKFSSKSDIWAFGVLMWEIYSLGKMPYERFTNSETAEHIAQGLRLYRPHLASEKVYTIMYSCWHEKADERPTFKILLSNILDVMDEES
T2 sequence (Q06187 whole entry C481S): as the sequence (Q06187 whole entry) above, with C481S counted along it

`Cc1cccc(C)c1Nc1nn(C)c2nc(Nc3ccc4c(c3)CN(Cc3cn(CCOCCOCCNC(=O)CNc5ccc6c(c5)C(=O)N(C5CCC(=O)NC5=O)C6=O)nn3)CC4)ncc12` (stereo not drawn) [Compound 12, N-(2-(2-(2-(4-((7-((3-((2,6-Dimethylphenyl)amino)-1-methyl-1H-pyrazolo[3,4-d]pyrimidin-6-yl)amino)-3,4-dihydroisoquinolin-2 (1H)-yl)methyl)-1H-1,2,3-triazol-1-yl)ethoxy)ethoxy)ethyl)-2-((2-(2,6-dioxopiperidin-3-yl)-1,3-dioxoisoindolin-5-yl)amino)acetamide]: the DC50 in experiment [1] was 10 to 1000 nM; in experiment [2], above 10 µM.

On to `Cc1cccc(C)c1Nc1nn(C)c2nc(Nc3ccc4c(c3)CN(C(=O)COCCOCCOCCOCCNc3cccc5c3C(=O)N(C3CCC(=O)NC3=O)C5=O)CC4)ncc12` (stereo not drawn) [Compound 13], for which the DC50 fell in the range of 0.1 to 10 nM in experiment [1] and 1 to 10 µM in experiment [2].

On to `Cc1cccc(C)c1Nc1nn(C)c2nc(Nc3ccc4c(c3)CN(C(=O)CCOCCOCCOCCOCCNc3cccc5c3C(=O)N(C3CCC(=O)NC3=O)C5=O)CC4)ncc12` (stereo not drawn) [Compound 14], for which the DC50 in experiment [1] is 0.1 to 10 nM; in experiment [2], above 10 µM.

Regarding `Cc1cccc(C)c1Nc1nn(C)c2nc(Nc3ccc4c(c3)CN(C(=O)CCOCCOCCOCCOCCNc3ccc5c(c3)C(=O)N(C3CCC(=O)NC3=O)C5=O)CC4)ncc12` (stereo not drawn) [Compound 15, 5-((15-(7-((3-((2,6-Dimethylphenyl)amino)-1-methyl-1H-pyrazolo[3,4-d]pyrimidin-6-yl)amino)-3,4-dihydroisoquinolin-2 (1H)-yl)-15-oxo-3,6,9,12-tetraoxapentadecyl)amino)-2-(2,6-dioxopiperidin-3-yl)isoindoline-1,3-dione], the DC50 in experiment [1] was 0.1 to 10 nM; in experiment [2], 1 to 10 µM.

As to `Cc1cccc(C)c1Nc1nn(C)c2nc(Nc3ccc4c(c3)CN(C(=O)CCOCCOCCOCCOCCNC(=O)COc3ccc5c(c3)C(=O)N(C3CCC(=O)NC3=O)C5=O)CC4)ncc12` (stereo not drawn) [Compound 16, N-(15-(7-((3-((2,6-Dimethylphenyl)amino)-1-methyl-1H-pyrazolo[3,4-d]pyrimidin-6-yl)amino)-3,4-dihydroisoquinolin-2 (1H)-yl)-15-oxo-3,6,9,12-tetraoxapentadecyl)-2-((2-(2,6-dioxopiperidin-3-yl)-1,3-dioxoisoindolin-5-yl)oxy)acetamide], the DC50 lay within 0.1 to 10 nM in experiment [1] and 1 to 10 µM in experiment [2].

In the case of `Cc1cccc(C)c1Nc1nn(C)c2nc(Nc3ccc4c(c3)CN(C(=O)CCOCCOCCOCCOCCNC(=O)COc3cccc5c3C(=O)N(C3CCC(=O)NC3=O)C5=O)CC4)ncc12` (stereo not drawn) [Compound 17, N-(15-(7-((3-((2,6-Dimethylphenyl)amino)-1-methyl-1H-pyrazolo[3,4-d]pyrimidin-6-yl)amino)-3,4-dihydroisoquinolin-2 (1H)-yl)-15-oxo-3,6,9,12-tetraoxapentadecyl)-2-((2-(2,6-dioxopiperidin-3-yl)-1,3-dioxoisoindolin-4-yl)oxy)acetamide], the DC50 in experiment [1] was 0.1 to 10 nM; in experiment [2], above 10 µM.

With `Cc1cccc(C)c1Nc1nn(C)c2nc(Nc3ccc4c(c3)CN(C(=O)CCOCCOCCOCCOCCNC(=O)CN3CCN(c5ccc6c(c5)C(=O)N(C5CCC(=O)NC5=O)C6=O)CC3)CC4)ncc12` (stereo not drawn) [Compound 18], the DC50 in experiment [1] was 0.1 to 10 nM; in experiment [2] it was above 10 µM.

For the compound `Cc1cccc(C)c1Nc1nn(C)c2nc(Nc3ccc4c(c3)CN(C(=O)c3cn(CCOCCOCCOCCNC(=O)CNc5cccc6c5C(=O)N(C5CCC(=O)NC5=O)C6=O)nn3)CC4)ncc12` (stereo not drawn) [Compound 19, N-(2-(2-(2-(2-(4-(7-((3-((2,6-Dimethylphenyl)amino)-1-methyl-1H-pyrazolo[3,4-d]pyrimidin-6-yl)amino)-1,2,3,4-tetrahydroisoquinoline-2-carbonyl)-1H-1,2,3-triazol-1-yl)ethoxy)ethoxy)ethoxy)ethyl)-2-((2-(2,6-dioxopiperidin-3-yl)-1,3-dioxoisoindolin-4-yl)amino)acetamide], the figures for the DC50 in experiment [1] and in experiment [2] were 10 to 1000 nM and above 10 µM, respectively.

With `Cc1cccc(C)c1Nc1nn(C)c2nc(Nc3ccc4c(c3)CN(CCOCCNC(=O)CN3CCN(c5ccc6c(c5)C(=O)N(C5CCC(=O)NC5=O)C6=O)CC3)CC4)ncc12` (stereo not drawn) [Compound 20, N-(2-(2-(7-((3-((2,6-Dimethylphenyl)amino)-1-methyl-1H-pyrazolo[3,4-d]pyrimidin-6-yl)amino)-3,4-dihydroisoquinolin-2 (1H)-yl)ethoxy)ethyl)-2-(4-(2-(2,6-dioxopiperidin-3-yl)-1,3-dioxoisoindolin-5-yl)piperazin-1-yl)acetamide], the DC50 fell in the range of 0.1 to 10 nM in experiment [1] and 1 to 10 µM in experiment [2].

With `Cc1cccc(C)c1Nc1nn(C)c2nc(Nc3ccc4c(c3)CN(CCOCCNC(=O)C3CCN(c5ccc6c(c5)C(=O)N(C5CCC(=O)NC5=O)C6=O)CC3)CC4)ncc12` (stereo not drawn) [Compound 21, N-(2-(2-(7-((3-((2,6-Dimethylphenyl)amino)-1-methyl-1H-pyrazolo[3,4-d]pyrimidin-6-yl)amino)-3,4-dihydroisoquinolin-2 (1H)-yl)ethoxy)ethyl)-1-(2-(2,6-dioxopiperidin-3-yl)-1,3-dioxoisoindolin-5-yl)piperidine-4-carboxamide], the DC50 lay within 0.1 to 10 nM in experiment [1] and 1 to 10 µM in experiment [2].

Consider `Cc1cccc(C)c1Nc1nn(C)c2nc(Nc3ccc4c(c3)CN(C(=O)CCOCCOCCOCCOCCNC(=O)CNc3ccc5c(c3)C(=O)N(C3CCC(=O)NC3=O)C5=O)CC4)ncc12` (stereo not drawn) [Compound 22, N-(15-(7-((3-((2,6-dimethylphenyl)amino)-1-methyl-1H-pyrazolo[3,4-d]pyrimidin-6-yl)amino)-3,4-dihydroisoquinolin-2 (1H)-yl)-15-oxo-3,6,9,12-tetraoxapentadecyl)-2-((2-(2,6-dioxopiperidin-3-yl)-1,3-dioxoisoindolin-5-yl)amino)acetamide], for which the DC50 was 0.1 to 10 nM in experiment [1] and above 10 µM in experiment [2].

In the case of `Cc1cccc(C)c1Nc1nn(C)c2nc(Nc3ccc4c(c3)CN(CCOCCOCC(=O)Nc3ccc5c(c3)C(=O)N(C3CCC(=O)NC3=O)C5=O)CC4)ncc12` (stereo not drawn) [Compound 23, 2-(2-(2-(7-((3-((2,6-Dimethylphenyl)amino)-1-methyl-1H-pyrazolo[3,4-d]pyrimidin-6-yl)amino)-3,4-dihydroisoquinolin-2 (1H)-yl)ethoxy)ethoxy)-N-(2-(2,6-dioxopiperidin-3-yl)-1,3-dioxoisoindolin-5-yl)acetamide], the DC50 in experiment [1] lay within 0.1 to 10 nM; in experiment [2], 1 to 10 µM.
